Source: US3968214A, “5-Methylthio-pyrimidine vasodilators” (Produits Chimiques Ugine Kuhlmann, priority 1973, dated 1976)
Read-outs that look alike come from different tables or passages of the source.

How the values were obtained:
isolated rabbit heart = experiment: Coronaro-dilatatory activity, isolated heart (Langendorff modified by Anderson); settings: for coronaro-dilatatory activity (in words): isolated rabbit heart
From the text: The technique of Langendorff, modified by F. E. Anderson, (J. Pharmacol. exp. Therap., 1948, 91, 135) using isolated rabbit heart permits the coronaro-dilatatory activity of the products to be studied. In this text, the cardiac perfusion liquid contains 0.5 UI/1 of posthypophysis. The results are expressed in the percentage variation of the coronary flow after affusion of the product to be tested, compared with the initial flow.

[1] = test system: isolated duodenum of rabbit, spasms induced by barium chloride; experiment: Spasmolytic activity, musculotrope versus BaCl2, isolated duodenum (Magnus)
From the text: (§1) The spasmolytic activities are known by means of the technique of R. Magnus (Arch. Ges. Physiol., 1904, 102, 123) on the isolated duodenum of rabbits. The spasmolytic neurotropes inhibit the contractions of the organ caused by acetylcholine, while the musculotropes prevent the spasms induced by barium chloride. The EC 50 expressed in mg/litre are collected in the following Table where EC denotes "Effective concentration".

[2] = test system: abdominal spasms caused in mice by 2-phenyl-1,4-benzoquinone; experiment: Analgesic activity: abdominal spasms caused by intraperitoneal 2-phenyl-1,4-benzoquinone (P.B.Q.); assay type: in vivo; settings: for ED50: Mus musculus, mice, oral, read-out: Analgesic activity P.B.Q. AD 50; for analgesic activity (in words): given orally to mice
From the text: (§2) The analgesic activities have been investigated with respect to abdominal spasms caused in mice by the intraperitoneal injection of 2-phenyl-1,4-benzoquinone according to E. Siegmund, E. Cadmus and G. Lu, Proc. Soc. exp. Biol. Med., 1957, 95, 729-731. The central antiserotonin properties have been determined by the "Head-twitch" technique in mice according to S. J. Corne, R. W. Pickering and B. T. Warner, Brit. J. Pharmacol., 1963, 20, 106-120. In this test, the antiserotonin products inhibit the sudden shaking of the head induced in mice by 5-hydroxy-tryptophan, the biological precursor of serotonin.

[3] = test system: isolated duodenum of rabbit, contractions caused by acetylcholine; experiment: Spasmolytic activity, neurotrope versus acetylcholine, isolated duodenum (Magnus)
From the text: as §1

[4] = test system: serotonin (shaking of the head induced by 5-hydroxy-tryptophan); experiment: Central antiserotonin activity: Head-twitch induced by 5-hydroxy-tryptophan; assay type: in vivo, mice; settings: for ED50: Mus musculus, mice, oral, read-out: Antiserotonin activity Head-twitch AD 50; for central antiserotonin activity (in words): given orally to mice
From the text: as §2, with “Biol. Med., 1957, 95, 729-731.” left out, “J. Pharmacol., 1963, 20, 106-120.” left out

[5] = Acute toxicity in mice, intravenous and oral (LD50); assay type: in vivo; settings: mouse, in vivo
From the text: (§3) The acute toxicities of the compounds according to the invention have been determined CD 1 mice (Charles RIVER) by intravenous and oral methods. The LD50 calculated by the quantal cumulative method of J. J. Reed and H. Muench (Amer. J. Hyg. 1938, 27, 493) are collected in the following Table: […]

glycemia = experiment: Hypoglycemiant activity, variation of glycemia after 4 days of daily oral treatment; assay type: in vivo, male CD rats (Charles RIVER); settings: rat
Description: The hypoglycemiant properties have been studied on the male CD rats (Charles RIVER) weighing 200 to 250 g, in which the glycemia is controlled before treatment and then after 4 days of daily oral treatment. The seric glucose is determined by the method of W. S. Hoffmann (J. Biol. Chem., 1937, 120, 51). Groups of 10 rats are used and the hypoglycemiant activity is expressed by the percentage variation of the average glycemia of the treated animals with respect to that of the controls. If it is necessary, the statistical significance of the difference is determined by the test of the coefficient "t" of Student.

mice = experiment: Acute toxicity in mice, intravenous and oral (LD50); assay type: in vivo
From the text: as §3

[6] = intravenous, read-out: Acute toxicity to mice LD 50, intravenous
[7] = oral, read-out: Acute toxicity to mice LD 50, orally

CCN(CC)CCNc1nc(N(C)c2ccccc2)nc(Cl)c1SC [Example 2, 2-N-methyl-N-phenylamino-4-(2'-diethylamino)-ethylamino-5-methylthio-6-chloro-pyrimidine]
Increase of the coronary flow (isolated rabbit heart; dose 0.01 mg): 56% | Increase of the coronary flow (isolated rabbit heart; dose 0.03 mg): 58% | Increase of the coronary flow (isolated rabbit heart; dose 0.10 mg): 64% | Increase of the coronary flow (isolated rabbit heart; dose 0.30 mg): 91% | coronaro-dilatatory activity (in words) (isolated rabbit heart): interesting coronaro-dilatatory activities | Spasmolytic activity EC 50, musculotrope versus BaCl2 [1]: 0.80 µg/mL | ED50 [2]: > 100 mg/kg | Spasmolytic activity EC 50, neurotrope versus acetylcholine [3]: 1.50 µg/mL | ED50 [4]: 95 mg/kg | central antiserotonin activity (in words) [4]: central antiserotonine | LD50 [5, 6]: 43 mg/kg | LD50 [5, 7]: 225 mg/kg

COc1nc(N(C)c2ccccc2)nc(NCCN(C)C)c1SC [Example 26, 2-N-methyl-N-phenyl-amino-4-(2'-dimethylamino)-ethylamino-5-methylthio-6-methoxy-pyrimidine]
ED50 [2]: 65 mg/kg | LD50 [5, 6]: 70 mg/kg | LD50 [5, 7]: 225 mg/kg

CSc1c(Cl)nc(N(C)c2ccccc2)nc1NCCN(C(C)C)C(C)C [Example 12, 2-N-methyl-N-phenylamino-4-(2'-di-isopropyl-amino)-ethylamino-5-methylthio-6-chloro-pyrimidine]
hypoglycemiant properties (in words) (glycemia): strong hypoglycemiant properties | ED50 [2]: 100 mg/kg | LD50 [5, 7]: 600 mg/kg

CSc1c(NCCN(C(C)C)C(C)C)nc(N(C)c2ccccc2)nc1OCCCN(C)C [Example 30, 2-N-methyl-N-phenyl-amino-4-(2'-di-isopropyl-amino)-ethylamino-5-methyl-thio-6-(dimethylaminoethyl)-methoxy-pyrimidine]
Spasmolytic activity EC 50, musculotrope versus BaCl2 [1]: 1.00 µg/mL | hypoglycemiant properties (in words) (glycemia): strong hypoglycemiant properties | Acute toxicity to mice LD 50, intravenous (mice; intravenous): 9.5 mg/kg | Acute toxicity to mice LD 50, orally (mice; oral): 200 mg/kg

CCN(CC)c1nc(Cl)c(SC)c(NCCN(C(C)C)C(C)C)n1 [Example 16, 2-diethylamino-4-(2'-diisopropylamino)-ethylamino-5-methylthio-6-chloro-pyrimidine]
Increase of the coronary flow (isolated rabbit heart; dose 0.003 mg): 16% | Increase of the coronary flow (isolated rabbit heart; dose 0.01 mg): 52% | coronaro-dilatatory activity (in words) (isolated rabbit heart): interesting coronaro-dilatatory activities | Spasmolytic activity EC 50, musculotrope versus BaCl2 [1]: 0.30 µg/mL | ED50 [2]: 70 mg/kg | analgesic activity (in words) [2]: marked analgesic activity | ED50 [4]: 90 mg/kg | central antiserotonin activity (in words) [4]: central antiserotonine | LD50 [5, 7]: 600 mg/kg

CCCN(CCC)c1nc(Cl)c(SC)c(NCCN(CC)CC)n1 [Example 5, 2-dipropylamino-4-(2'-diethylamino)-ethylamino-5-methylthio-6-chloro-pyrimidine]
Spasmolytic activity EC 50, musculotrope versus BaCl2 [1]: 0.90 µg/mL | hypoglycemiant properties (in words) (glycemia): strong hypoglycemiant properties | ED50 [2]: > 300 mg/kg | Spasmolytic activity EC 50, neurotrope versus acetylcholine [3]: 1.00 µg/mL | ED50 [4]: 100 mg/kg | LD50 [5, 7]: 800 mg/kg

COc1nc(N(C)c2ccccc2)nc(NCCN(C(C)C)C(C)C)c1SC [Example 24, 2-N-methyl-N,phenylamino-4-(2'-diisopropylamino)-ethylamino-5-methyl-thio-6-methoxy-pyrimidine]
Increase of the coronary flow (isolated rabbit heart; dose 0.003 mg): 26% | Increase of the coronary flow (isolated rabbit heart; dose 0.01 mg): 32% | Increase of the coronary flow (isolated rabbit heart; dose 0.03 mg): 58% | Increase of the coronary flow (isolated rabbit heart; dose 0.10 mg): 67% | coronaro-dilatatory activity (in words) (isolated rabbit heart): interesting coronaro-dilatatory activities | Spasmolytic activity EC 50, musculotrope versus BaCl2 [1]: 0.13 µg/mL | hypoglycemiant properties (in words) (glycemia): strong hypoglycemiant properties | Spasmolytic activity EC 50, neurotrope versus acetylcholine [3]: 0.12 µg/mL | neurotropic spasmolytic activity (in words) [3]: necessary to call attention | LD50 [5, 6]: 22 mg/kg | LD50 [5, 7]: 600 mg/kg

CSc1c(Cl)nc(N(C)c2ccccc2)nc1NCCN(C)C [Example 7, 2-N-methyl-N-phenyl-amino-4-(2'-dimethyl-amino)-ethylamino-5-methylthio-6-chloro-pyrimidine]
Increase of the coronary flow (isolated rabbit heart; dose 0.003 mg): 38% | Increase of the coronary flow (isolated rabbit heart; dose 0.01 mg): 40% | Increase of the coronary flow (isolated rabbit heart; dose 0.03 mg): 37% | Increase of the coronary flow (isolated rabbit heart; dose 0.10 mg): 77% | coronaro-dilatatory activity (in words) (isolated rabbit heart): interesting coronaro-dilatatory activities | Spasmolytic activity EC 50, musculotrope versus BaCl2 [1]: 0.16 µg/mL | ED50 [2]: 60 mg/kg | analgesic activity (in words) [2]: marked analgesic activity | Spasmolytic activity EC 50, neurotrope versus acetylcholine [3]: 1.20 µg/mL | LD50 [5, 6]: 80 mg/kg | LD50 [5, 7]: 200 mg/kg

CCN(CC)CCNc1nc(N(CC)CC)nc(Cl)c1SC [Example 3, 2-diethylamino-4-(2'-diethylamino)-ethyl-amino-5-methylthio-6-chloro-pyrimidine]
Spasmolytic activity EC 50, musculotrope versus BaCl2 [1]: 0.30 µg/mL | ED50 [2]: > 100 mg/kg | Spasmolytic activity EC 50, neurotrope versus acetylcholine [3]: 1.30 µg/mL | ED50 [4]: 35 mg/kg | central antiserotonin activity (in words) [4]: central antiserotonine | LD50 [5, 6]: 64 mg/kg | LD50 [5, 7]: 225 mg/kg

CSc1c(Cl)nc(N(C)c2ccc(Cl)cc2)nc1NCCN(C(C)C)C(C)C [Example 18, 2-N-methyl-N(4-chloro-phenyl)amino-4-(2'-diisopropyl-amino)-ethylamino-5-methylthio-6-chloro-pyrimidine]
hypoglycemiant properties (in words) (glycemia): strong hypoglycemiant properties | ED50 [2]: > 300 mg/kg | ED50 [4]: 205 mg/kg | LD50 [5, 7]: > 900 mg/kg

COc1nc(N(C)Cc2ccccc2)nc(NCCN(C(C)C)C(C)C)c1SC [Example 27, 2-N-methyl-N-benzyl-amino-4-(2'-diiso-propyl-amino)-ethylamino-5-methyl-thio-6-methoxy-pyrimidine]
Spasmolytic activity EC 50, musculotrope versus BaCl2 [1]: 0.08 µg/mL | musculotropic EC 50 [1]: less than 0.1 mg/liter | musculotropic spasmolytic activity (in words) [1]: quite remarkable activities | ED50 [2]: 95 mg/kg | analgesic activity (in words) [2]: marked analgesic activity | LD50 [5, 6]: 18.5 mg/kg | LD50 [5, 7]: 600 mg/kg

CSc1c(Cl)nc(N2CCCCC2)nc1NCCN(C(C)C)C(C)C [Example 13, 2-piperidino-4-(2'-diisopropylamino)-ethylamino-5-methylthio-6-chloro-pyrimidine]
hypoglycemiant properties (in words) (glycemia): strong hypoglycemiant properties | ED50 [4]: 185 mg/kg | LD50 [5, 7]: > 900 mg/kg

CCN(CC)CCNc1nc(N(C)c2ccc(Cl)cc2)nc(Cl)c1SC [Example 6, 2-N-methyl-2-N-(4-chloro-phenyl)amino-4-(2'-diethylamino)-ethylamino-5-methylthio-6-chloro-pyrimidine]
hypoglycemiant properties (in words) (glycemia): strong hypoglycemiant properties | ED50 [4]: 65 mg/kg | central antiserotonin activity (in words) [4]: central antiserotonine | LD50 [5, 7]: 610 mg/kg

CSc1c(Cl)nc(N(C)c2cccc(C(F)(F)F)c2)nc1NCCN(C(C)C)C(C)C [Example 17, 2-N-methyl-N(3-trifluoromethyl-phenyl)-amino-4-(2'-diisopropylamino)-ethylamino-5-methylthio-6-chloro-pyrimidine]
Spasmolytic activity EC 50, musculotrope versus BaCl2 [1]: 0.50 µg/mL | hypoglycemiant properties (in words) (glycemia): strong hypoglycemiant properties | ED50 [4]: 400 mg/kg | LD50 [5, 7]: > 900 mg/kg
